In US12570975B2, “Composition for diagnosis or treatment of a condition associated with increased activity of EIF4E comprising an EIF4E inhibitor” (SoVarGen Co., Ltd., priority 2019, dated 2026):

How the values were obtained:
[1] = test system: FMCD and epilepsy animal models (mTOR-p.C1483Y, mTOR-p.L2427P); experiment: 3-Chamber test (social interaction), FMCD epilepsy models; type: in vivo, mouse; details: ASO-eIF4E models compared to ASO-control models
Experimental: The 3-Chamber test measures social interaction and preference for social novelty. This apparatus consisted of three chambers with dimensions of 12×20×26 cm for the center chamber and dimensions of 14×20×26 cm for the opposite side chambers. Each of the opposite side chambers included a plastic cage (11 cm in diameter, 2.15 cm in height) for an object or stranger mouse in a corner. This experiment consisted of three sessions of habituation (10 min), exploring object/mouse (10 min), and exploring familiar/new mouse (10 min). In the second session, a WT stranger mouse was randomly placed in a plastic cage while the opposite plastic cage was empty. The mouse was allowed to freely explore the whole apparatus. The time spent in each chamber was measured and then used for the subsequent social interaction test. In the last session, a new WT stranger was placed in the empty plastic cage.
Experiments were performed on the FMCD and epilepsy animal models (mTOR-p.C1483Y, mTOR-p.L2427P) of Example 7-1 and the control normal animal models (mTOR-WT). […]
(§1) Briefly, ASO #77 was administered by ICV injection to the FMCD and epilepsy animal models were generated with the pCIG-mTOR mutant-IRES-EGFP of Example 1. ASO #77 was evaluated for therapeutic potential for neuropsychiatric disorder accompanying the FMCD epilepsy animal models in the substantially same manner as in Example 6.

[2] = test system: C57BL/6J mice; details: mouse, in vivo
[3] = test system: FMCD and epilepsy animal models (mTOR-p.C1483Y, mTOR-p.L2427P); type: in vivo, mouse
Experimental: Behaviors were recorded and analyzed using EthoVision XT (Noldus).
(§2) Experiments were performed on the FMCD and epilepsy animal models (mTOR-p.C1483Y, mTOR-p.L2427P) of Example 7-1 and the control normal animal models (mTOR-WT). The same sheIF4E as that described in Example 2 was used. Week 2 after sheIF4E injection, the handling was performed in the animals. Week 3 after sheIF4E injection, the animals were subjected to the behavioral tests.
(§3) The epilepsy animal models were subjected to the substantially same behavioral abnormality assay as in Example 6. The results are depicted in FIGS. 28 and 29.
as §1

[4] = test system: FMCD and epilepsy animal models (mTOR-p.C1483Y, mTOR-p.L2427P); experiment: Sucrose preference test, FMCD epilepsy models; type: in vivo, mouse; details: ASO-eIF4E models compared to ASO-control models
Experimental: Each of mice was habituated for 3-5 days in a cage with two selectable water bottles presented. Thereafter, the mice were each placed in the same cage as the habituation cage at the day of experiment. The mice were presented with two dual bottles, one containing tap water and the other containing 1% sucrose solution. Water and sucrose solution intake was measured after 24 hours and sucrose preference was calculated according to volume of sucrose intake/total volume of fluid intake×100%.
The same sheIF4E as that described in Example 2 was used. Week 2 after sheIF4E injection, the handling was performed in the animals. Week 3 after sheIF4E injection, the animals were subjected to the behavioral tests.
The epilepsy animal models were subjected to the substantially same behavioral abnormality assay as in Example 6.
as §1

[5] = test system: eIF4E mRNA; experiment: ASO screening by real-time PCR (eIF4E mRNA, HEK293T); type: cell-based, human; details: relative to ASO #75
Experimental: In an alternative approach for screening the designed ASO candidates, the human cell line HEK293T cells (human) were cultured on 96-well culture plates for 24 hours and then transfected with ASO candidates with the aid of iN-fect™ transfection reagent (INTRON, 15081). Twenty four hours after transfection, the cells were harvested and subjected to lysis and RNA extraction using SuperPrep™ II Cell Lysis & RT Kit reagent (Toyobo, SCQ-401). From the RNA thus obtained, cDNA was synthesized by reverse transcription PCR. Real-time PCR was performed in CXF384 Touch™ Real-Time System (Bio-Rad) with SYBR® green real-time PCR master mix (Toyobo, QPK-201). Forward and reverse PCR primer sequences for eIF4E and GAPDH are as follows:
The real-time PCR conditions in the CXF384_Touch™ Real-Time System were as follows: 95° C. for 1 min, then 95° C. for 15 sec, 59.5° C. for 20 sec, and 72° C. for 30 sec for 39 cycles. Each sample was analyzed in triplicates. […] FIGS. 16b and 16c are graphs in which relative eIF4E expression levels are quantitatively expressed as ratios compared to the GAPDH expression level in HEK293T cells treated with ASO candidates.

[6] = test system: FMCD and epilepsy animal models (mTOR-p.C1483Y, mTOR-p.L2427P); experiment: Marble burying test, FMCD epilepsy models; type: in vivo, mouse; details: ASO-eIF4E models compared to ASO-control models
Experimental: A mouse was placed in the cage.
as §2, §3, §1

[7] = test system: epilepsy models (mTOR p.C1483Y or mTOR p.L2427P); experiment: Seizure monitoring after ICV injection of ASO in FMCD epilepsy models; type: in vivo, mouse; details: ICV injection 100-500 μg, day 3 to day 70 after injection
Experimental: For this experiment, animal models established using pCIG-mTOR p.C1483Y-IRES-EGFP and pCIG-mTOR p.L2427P-IRES-EGFP of Example 1 were used while animal models established with pCIG-mTOR (WT)-IRES-EGFP […] served as a control. The ASOs were each intracerebroventricularly injected (ICV injection) at a dose of 100-500 μg to the brains of the mice that had been identified to undergo epileptic seizure. From day 3 after ASO injection to up to day 70, 12-hour video were recorded for seizure monitoring 2-3 times a week per mouse.

[8] = test system: C57BL/6J mice; details: male or female mice injected with ASO

ASO #77: eIF4E-targeting antisense oligonucleotide of SEQ ID NO: 77, 2′-MOE gapmer, all phosphorothioate linkages (antisense GATCCTTCACCAATGTTACA; all phosphorothioate, sugars by position and methylation of C not given here; 2'-MOE gapmer)
time spent in sniffing zone (social ability) [1]: increased | dyskinesia (behavior test) [2]: no dyskinesia | time spent in center (index of anxiety) [2]: not changed | time spent in center (index of anxiety) ([3]; ASO-eIF4E models compared to ASO-control models): increased | dyskinesia (behavior test) ([3]; mouse, in vivo): no dyskinesia | % sucrose preference [4]: increased | Expression level of eIF4E(%) compared to ASO#75 [5]: 121% | number of buried marbles (repetitive behavior) [6]: increased | seizure frequency [7]: remarkably reduced | % sucrose preference [8]: not changed
